Measurements reported in ChEMBL document CHEMBL5550167, “Emerging trends in small molecule inhibitors targeting aldosterone synthase: A new paradigm in cardiovascular disease treatment” (Eur J Med Chem, 2024).

Key:
[1] = target: T1, CYP11B1 (Homo sapiens, UniProt P15538); assay: (§1) Inhibition of CYP11B1 (unknown origin); type: ADME
T1 sequence (P15538 whole entry): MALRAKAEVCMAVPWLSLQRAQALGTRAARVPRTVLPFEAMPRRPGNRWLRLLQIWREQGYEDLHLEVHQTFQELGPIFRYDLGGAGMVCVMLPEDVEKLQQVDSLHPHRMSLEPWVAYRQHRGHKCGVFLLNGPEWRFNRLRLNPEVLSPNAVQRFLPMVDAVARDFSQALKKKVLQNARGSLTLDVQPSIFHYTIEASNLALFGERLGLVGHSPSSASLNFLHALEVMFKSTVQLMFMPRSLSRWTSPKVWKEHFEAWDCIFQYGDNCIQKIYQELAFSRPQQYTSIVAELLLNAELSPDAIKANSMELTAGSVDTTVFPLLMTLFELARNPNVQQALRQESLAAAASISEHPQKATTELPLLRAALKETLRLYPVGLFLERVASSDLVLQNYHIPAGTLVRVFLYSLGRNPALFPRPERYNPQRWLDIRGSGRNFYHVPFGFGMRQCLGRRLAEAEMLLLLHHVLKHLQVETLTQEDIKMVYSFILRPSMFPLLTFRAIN

[2] = Metabolic stability in human liver microsomes assessed as half life measured upto 60 mins by LC/MS-MS analysis; type: ADME, Microsome
[3] = target: T2, Cytochrome P450 11B2, mitochondrial (Homo sapiens, UniProt P19099); assay: Inhibition of CYP11B2 (unknown origin); type: ADME
T2 sequence (P19099 whole entry): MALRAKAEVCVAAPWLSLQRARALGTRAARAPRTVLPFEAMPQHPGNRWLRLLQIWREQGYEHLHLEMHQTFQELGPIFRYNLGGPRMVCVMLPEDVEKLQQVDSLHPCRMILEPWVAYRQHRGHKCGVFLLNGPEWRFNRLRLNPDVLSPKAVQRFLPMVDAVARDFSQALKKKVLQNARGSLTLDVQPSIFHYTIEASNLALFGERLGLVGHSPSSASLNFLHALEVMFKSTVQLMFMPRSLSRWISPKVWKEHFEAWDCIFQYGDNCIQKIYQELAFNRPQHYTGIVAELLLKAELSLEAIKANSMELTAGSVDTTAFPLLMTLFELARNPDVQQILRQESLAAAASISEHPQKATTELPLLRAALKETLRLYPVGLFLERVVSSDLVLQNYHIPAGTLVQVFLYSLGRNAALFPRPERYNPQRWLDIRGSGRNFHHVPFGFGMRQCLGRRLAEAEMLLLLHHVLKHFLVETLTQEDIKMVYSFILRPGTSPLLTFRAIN

[4] = target: T3, Cytochrome P450 11B1, mitochondrial (Homo sapiens, UniProt P15538); assay: as §1; type: ADME
T3 sequence (P15538 whole entry): T1 sequence (P15538 whole entry)

[5] = target: T2, Cytochrome P450 11B2, mitochondrial; assay: Inhibition of human CYP11B2 stably expressed in G-402 cells; type: ADME, cell-based
[6] = target: T2, Cytochrome P450 11B2, mitochondrial; assay: Inhibition of human CYP11B2 expressed in human NCI-H295 cells incubated for 48 hrs by radioimmuno assay; type: ADME, cell-based

| SMILES | IC50 [3] | also measured |
| --- | --- | --- |
| COc1cc2c(cc1-c1cccnc1)CCC(=O)N2C | – | IC50 [1]: 1100 nM |
| Cc1nnc2n1-c1ccc(-c3cncc([C@](C)(O)C(F)(F)F)c3)cc1CC2 | 64 nM | half-life [2]: 120 min |
| Cc1c(-c2cccnc2)[nH]c2ccccc12 | – | IC50 [4]: 81 nM |
| Cn1c(-c2cccnc2)c(C#N)c2ccc(Cl)cc21 | – | IC50 [4]: 107 nM |
| Cn1cc(C(=O)N2CC(Oc3cncc(N4C(=O)c5ccc(Cl)cc5C4(C)C)c3)C2)cn1 | – | IC50 [5]: 0.5 nM |
| COc1ccc2c(c1)CC(C)C(c1cncc3ccccc13)=C2 (stereo unspecified) | – | IC50 [6]: 0.5 nM |
| Cn1nccc1-c1cncc(N2CCc3cc(Cl)ccc3C2=O)c1Cl | – | IC50 [5]: 6.2 nM |
| Cc1c(F)cncc1C1COc2c(cccc2C(N)=O)O1 (stereo unspecified) | – | IC50 [1]: 2600 nM |
| CC1(c2ccccc2)CCc2cncc(-c3ccc(C(F)(F)F)cc3F)c21 (stereo unspecified) | 33 nM | IC50 [4]: 738 nM |
| N#Cc1cccc2c1OCC(c1cncc(C(O)C3CCOCC3)c1)O2 (stereo unspecified) | < 10 nM | – |
| CC(C)CCC1(c2ccccc2Cl)C(=O)N(Cc2ccc(F)cc2)Cc2cncn21 (stereo unspecified) | 4 nM | – |
| N#Cc1ccc(-c2cncc3c2CCCC3)cc1 | 40 nM | – |
| CN(C)C(=O)CC1CCCc2c(-c3ccc(C(F)(F)F)cc3F)cncc21 (stereo unspecified) | 32 nM | – |
| N#Cc1cccc2c1OCC(c1cncc(CN3CCOC3=O)c1)O2 (stereo unspecified) | < 10 nM | – |
| N#Cc1cccc2c1OCC(c1cncc(CN3CCCCS3(=O)=O)c1)O2 (stereo unspecified) | < 10 nM | – |
| CCn1cc(C(=O)N2CC3(C2)CN(c2cncc(N4C(=O)c5ccc(Cl)cc5C4(C)C)c2)C3)cn1 | – | IC50 [5]: 0.23 nM |
| CCCC1(c2ccc(C#N)cc2OC)C(=O)N(Cc2ccccc2)Cc2cncn21 (stereo unspecified) | 4 nM | – |
| CNC(=O)Cn1cc(NC(=O)CN2CCN(c3cncc(-c4ccc(Cl)cc4)c3)CC2)cn1 | 3 nM | – |
| CC1(C)C(=O)Nc2cccc(Cl)c2C1n1cncc1CO (stereo unspecified) | 7 nM | – |
| CS(=O)(=O)COc1cncc(C2COc3c(C#N)cccc3O2)c1 (stereo unspecified) | < 10 nM | – |
| CC1(C)CN(Cc2ccccc2)c2ccccc2C1N1C=NCC1CO (stereo unspecified) | 6 nM | – |
| O=C(CC1CCc2c(-c3ccc(C(F)(F)F)cc3F)cncc21)N1CCCCC1 (stereo unspecified) | 2 nM | IC50 [4]: 10 nM |
| CC(C)NC(=O)CN1CCN(c2cncc(-c3ccc4c(c3)CCO4)n2)C1 | 2.2 nM | – |
